Test [1] has as its system Myeloperoxidase. In words: Detection of neutrophil sequestration (myeloperoxidase assay). In kind it is in vivo, Sprague-Dawley rats. Particulars: infected burn wound, 32 hours post-injury. Here is the method:
The occlusive dressing and TELFA was removed.
100 mg of skin tissue was mechanically homogenized in 1 mL ice cold potassium phosphate buffer consisting of 115 mM monobasic potassium phosphate (Sigma Aldrich, Milwaukee, Wis.). Homogenates were centrifuged at 3000 g for 10 min at 4° C., the supernatants were removed and the pellets were re-suspended in 1 mL C-TAB buffer consisting of dibasic potassium phosphate, cetyltrimethylammonium bromide, and acetic acid (Sigma Aldrich, Milwaukee, Wis.). The suspensions were sonicated (Branson Sonifier 250, Danbury, Conn.) on ice for 40 seconds. Homogenates were centrifuged at 3000 g for 10 min at 4° C. and the supernatant collected. Supernatants were incubated in 60° C. water bath for 2 hours (Shaker Bath, 2568; Forma Scientific, Marietta, Ohio). Samples were stored at −80° C. until needed or assayed immediately.

For test [2], the system named is IL1-β, IL-6, TNF-α, CINC-1, CINC-3, IL-10 and TGF-β. As to the kind of experiment: Dermal cytokine analysis (ELISA) of burn wound skin. In kind it is in vivo, Sprague-Dawley rats. As for the experimental part:
After drying, an occlusive dressing of sterile […] […] Stock nanoemulsion […] […] The occlusive dressing and TELFA was removed. […] Homogenates were centrifuged at 3000 g for 5 minutes and the supernatants collected and stored frozen at -80° C. until use. Rat IL1-β, IL-6, […]-10 and TGF-β were measured by sandwich enzyme-linked immunosorbent assay (ELISA) using antibodies and reagents from R&D Systems, Inc. (Minneapolis, Minn.). The assay was carried out in 96-well microplates (Immunoplate Maxisorb, Nunc, Neptune, N.J.) according to the kit instructions and samples were read using a microplate reader (Biotek Instruments, Winooski, Vt.) at 450 nm with a wavelength correction of 540 nm. Cytokine concentrations were determined using the plate reader software and a 7-point standard curve. Results were adjusted for previous dilution and expressed as pg/mL.

The subject of test [3] is Burkholderia cenocepacia. As to the kind of experiment: MIC and MBC determination (CLSI, alamar blue), CF isolates. A general note: The colour change of resazurin is a common sign of viable cells or microbes.
For test [4], the system named is Acinetobacter strains. In words: Checkerboard synergy study (FIC/FBC index). In kind it is cell-based, Acinetobacter baumannii. Particulars: Acinetobacter; in combination with P4075EC+EDTA.
Test [5] has as its system Stenotrophomonas maltophilia. In words: MIC and MBC determination (CLSI, alamar blue), CF isolates.
For test [6], the system named is Stenotrophomonas strains. In words: Checkerboard synergy study (FIC/FBC index). As to conditions: Stenotrophomonas; in combination with P4075EC+EDTA. In kind it is cell-based, Stenotrophomonas maltophilia.
Test [7] has as its system Burkholderia strains. In words: Checkerboard synergy study (FIC/FBC index). In kind it is cell-based, Burkholderia cenocepacia. As to conditions: Burkholderia; in combination with P4075EC+EDTA.
For test [8], the system named is Pseudomonas aeruginosa. In words: MIC and MBC determination (CLSI, alamar blue), CF isolates. Particulars: Pseudomonas.
The subject of test [9] is Burkholderia cepacia. As to the kind of experiment: MIC determination, CLSI microdilution with alamar blue. In kind it is cell-based. As to conditions: Burkholderia cepacia (n = 5); nanoemulsions in the presence of 5 mM EDTA. In general terms: In broth dilution the organism is exposed to a series of concentrations in liquid medium.
Test [10] has as its system Acinetobacter baumannii. In words: MIC and MBC determination (CLSI, alamar blue). As to conditions: Acinetobacter.
Test [11] relates to Proteus mirabilis. As to the kind of experiment: MIC determination, CLSI microdilution with alamar blue. As to conditions: Proteus mirabilis (n = 5); nanoemulsions in the presence of 5 mM EDTA; in µg/mL. In kind it is cell-based.

This note sets out measurements from US20160158179A1, “NANOEMULSION THERAPEUTIC COMPOSITIONS AND METHODS OF USING THE SAME” (THE REGENTS OF THE UNIVERSITY OF MICHIGAN, priority 2008, published 2016).

Values after ≈ are worked out from the molar mass of the structure shown. Where only a bound is given, the exact number is not on record here.

In test [1], `NCc1ccc(S(N)(=O)=O)cc1` [Sulfamylon, mafenide acetate] displayed a myeloperoxidase of 0.08 ± 0.02 µg/mL. In addition, in [2] (32 hours), the “level of IL-10 or TGF-β in the infected burn wound” value is given as “did not suppress”. The “dermal levels of proinflammatory cytokines IL-6, TNF-α, CINC-1 or CINC-3 compared to controls” value in [2] (infected burn wound) was “did not result in any significant alteration”.
As for `NC[C@H]1O[C@H](O[C@H]2[C@H](O)[C@@H](O[C@H]3O[C@H](CO)[C@@H](O)[C@H](N)[C@H]3O)[C@H](N)C[C@@H]2N)[C@H](N)C[C@@H]1O` [Tobramycin], the “MIC 90” value was >32 µg/mL in test [3] (Burkholderia); > 32 µg/mL in test [3] (Burkholderia cenocepacia); >32 µg/mL in [5] (Stenotrophomonas); > 32 µg/mL in test [5] (Stenotrophomonas maltophilia); 16 µg/mL (≈ 34.2 µM) in test [8]; 16 µg/mL (≈ 34.2 µM) in [10]. Further, the MIC 50 in test [3] (Burkholderia cenocepacia) is > 32 µg/mL; in [5] (Stenotrophomonas), >32 µg/mL; in test [5] (Stenotrophomonas maltophilia), > 32 µg/mL; in test [8] it was 1 µg/mL (≈ 2.14 µM); in test [9] it was 16 µg/mL; in [10] it was 1 µg/mL (≈ 2.14 µM). For the same molecule, the Overall synergy result in test [4], in [6] and in test [7] was “No Interference” throughout.
As to Piperacillin/tazobactam, the “MIC Range” value in [11] is recorded as “<=0.5-1”.
